# Test results taken from patent publication US11629165B2, “Molecules for targeting ribosomes and ribosome-interacting proteins, and uses thereof” (Immagina Biotechnology S.r.l., priority 2018, dated 2023).
# Experiments:
# Assay type in all cases: cell-based
# [1] = tested on: MCF7 cells; assay: Puromycin concentration effect on translation, puromycin immunoblot; conditions: MCF7, 2 hours
# Procedure: FIG. 10. Effect of ribosome inhibitors on 3PB/3PBis binding. (a) Immunoblot of puromycin on total protein extracts from, MCF7 cell treated with increasing concentrations of puromycin (incubation time: 2 hours). CHX+Puro: 350 μM CHX before puromycin treatment (20, 50, 100, 200 μM). 3PBis treatment: (50 μM, 10 min); −, not treatment. (b) On the left, immunoblot with anti-puromycin antibody on total protein extracts from MCF7 cells treat with the indicated drugs. CHX, 350 μM, 5 min; Puromycin, 100 μM, 2 hours; 3PB, 50 μM, 10 min. On the right, CuAAC coupling with Biotin-azide was performed on the cell lysate before total protein extract and SDS-PAGE. The staining of the membrane was performed with Streptavidin-HRP. (c) Sketch that summarize the effect of puromycin treatment on the 3PB-3PBis labelling.
# Next, we asked if the labelling is sensitive on puromycin treatment (i.e. dependent on ribosome activity). To do that, we first treated MCF7 cell with puromycin followed by 10 min incubation with 3PB or 3PBis. When used in minimal amounts, puromycin can be incorporated in neosynthesized proteins^25, while high concentrations as well as long incubation times, fully block translation. […] Probe-labeled proteins were coupled to a Cy3-azide reporter tag using CuAAC chemistry, separated by SDS-PAGE and detected by in-gel fluorescence scanning. […]
# [2] = tested on: cellular proteins of HEK-293 and MCF7 cell lines; assay: 3Px probe protein labelling, UV irradiation, anti-puromycin immunoblot
# Procedure: For our initial analysis, we treated HEK-293 and MCF7 cell lines in complete culture medium with the 3PB probe (10 μM) for 10 min, followed by irradiation for 5 min on ice (total power: 0.75 J/cm2). We first assessed 3PB labeling of cellular proteins using SDS-PAGE analysis. […] Then, we compared the labelling activity of 3PB, 3PA and 3PBis in HEK293 and MCF7 cells, adding the probes before or after cell lysis. In the latter case, each probe is incubated for 1 h in the cytoplasmic cell extract at 4° C., followed by UV irradiation (0.75 J/cm^2) of the treated lysate. […] Therefore, both 3PB and 3PBis show additional bands with MW=˜50 kDa, when reacted in the cell lysate, with respect to the situation when probes are incubated with growing cells (FIG. 6a). […] This is presumably due to the higher hydrophobicity of the 3PBis probe and a consequent better cell membrane penetration (FIG. 7).
# To test 3PN and 3PO activity, we treated MCF7 cells with different concentrations of the two drugs for 10 min, followed by UV-356 irradiation.
# Reaction in cell culture: MCF7 or HEK-293 cells were grown to 80% of confluence and treated with CHX (10 μg/mL, 5 min, 37° C.) and then with the probe (10 min, 37 C). Cells were then washed with cold PBS (containing CHX 10 μg/mL), placed on ice and irradiated under a UV lamp (BLX-365, 5×8 W) at 365 nm for 5 min (0.75 J/cm^2) followed by lysis with hypotonic cytoplasmic buffer. Reaction in the cell lysate: HEK-293 or MCF7 cells were treated with CHX (10 μg/mL, 5 min). After hypotonic lysis and precipitation of nuclei and cellular debris by centrifugations at 18000 g, 4° C., 5 min, the supernatant was diluted to A260=1 a.u/μL with 10 mM NaCl, 10 mM MgCl2, 20 μg/mL cycloheximide, 10 mM Hepes, pH 7 in DEPC water, to a final volume of 150 μL. The diluted lysate was then incubated with the reactive probe for 1 hour in a 12-well plate and then UV-irradiated (BLX-365) at 365 nm for 5 min (0.75 J/cm2).
# Cell lysates were prepared as described above. Proteins were separated by SDS-polyacrylamide gel electrophoresis and transferred onto PVDF membranes. […]
# [3] = tested on: 28S ribosomal RNA; assay: Labelling of rRNA by 3PBis, Cy3 in-gel fluorescence; conditions: MCF7, Cy3 conjugation, total RNA agarose gel
# Procedure: FIG. 20. 3PBis-ribosome interaction and labelling of 28S rRNA. MCF7 cells were incubated with 3PBis, fixed and conjugated with Cy3. After extraction, total RNA was run in agarose gel and stained with Syber gold or visualized by in-gel fluorescence scanning.
# We investigated the possibility that 3Px molecules directly reacts in the ribosome itself. If 3Px enters the ribosome as puromycin does, it should bind only the large ribosomal subunit, and in particular the rRNA 28S that form the catalytic pocket of the ribosome.
# [4] = tested on: MCF7 cells; assay: Polysome profiling of probe-treated cells; conditions: MCF7, 50 μM, 10 min
# Procedure: To better understand the effect of 3Px on the global translation efficiency, we compared the polysome profiles from DMSO and probes-treated cells. By treating MCF7 cells with 50 μM 3PBis or 3PB for 10 min, we observed a 10% reduction of the polysome/80S ratio (calculated by comparing the area under the 80S peak and the combined area under the polysome peaks, FIG. 11a). This effect is independent from the UV-treatment. Incubation of 3PB and 3PBis for longer times (7 hours or 18 hours) results in a depression of the polysome/80S area ratio of >50%, meaning that treatments with 3PBis can depress translation, increasing the 80S pick and reducing heavy polyribosomes (FIG. 11b).
# Cells were incubated for 5 minutes with cycloheximide 10 μg/mL at 37° C. to trap the ribosomes on the mRNAs. Cells were then washed with PBS complemented with cycloheximide (10 μg/mL) and scraped directly on the plate with 300 μL of lysis buffer (10 mM NaCl, 10 mM MgCl2, 10 mM Tris-HCl, pH 7.5, 1% Triton X-100, 1% sodium deoxycholate, […], 5 U/mL DNAse I, 200 U/mL RNase inhibitor, and 10 μg/mL cycloheximide, protease inhibitor). Nuclei and cellular debris were removed by three consecutive centrifugations (800 g, 5 min at 4° C.). […] The fraction corresponding to the 40S, 60S and 80S peaks and those corresponding to polysomes were collected monitoring the absorbance at 254 nm. […]
# [5] = tested on: ATP-binding site of GRP78; assay: Competition with VER-155008 on probe labelling; conditions: MCF7, VER-155008 100 μM 1 hour before probe
# Procedure: In total, 114 protein targets were identified from in-column digestion (called data set 1, n=4), 204 targets from in-gel digestion (called data set 2, n=4) and 1085 from in-bead digestion (called data set 3, n=2, FIG. 12c). The 3PB-beads pull down reflects the “double band” pattern observed with the incubation of 3PB/3PBis in the cell lysate (FIG. 12b). To increase the stringency of our in-beads digestion data set, we performed an enrichment analysis over control Peg-beads (n=2) and we identified 333 proteins setting a cut-off fold-enrichment (FC)≥1.3 between 3PB- and Peg-beads, while 166 proteins are identified with a FC≥2.5. By using the less stringent filter (FC≥1.3) and looking for proteins in common in the three data set, we identified 15 proteins as putative 3PB targets. These factors are known to be involved in tRNAs selection and ribosome elongation (eEF1A, eEF2, eEF4G), ribosome structure (RPL18), protein folding (HSP5A, HSP90AB1, PPIA), metabolism (PHGFH, ENO1, GAPDH, ALB), RNA processing (HNRNPK) and cellular structure (KRT2, KRT10, ACTB). […] After pull-down assay using avidin-magnetic beads (FIG. 12e and FIG. 13a) we observed the presence of the lower HSPA5/GRP78 band, while the upper band (although dominant in the input) was not detected. […]
# [6] = tested on: MCF7 cells; assay: Probe labelling after puromycin/CHX treatment, CuAAC Cy3-azide, in-gel fluorescence; conditions: MCF7, puromycin 20 and 100 μM 2 hours; 3PB 100 μM or 3PBis 50 μM, 10 min
# Procedure: Next, we asked if the labelling is sensitive on puromycin treatment (i.e. dependent on ribosome activity). To do that, we first treated MCF7 cell with puromycin followed by 10 min incubation with 3PB or 3PBis. When used in minimal amounts, puromycin can be incorporated in neosynthesized proteins^25, while high concentrations as well as long incubation times, fully block translation. We first define the concentration that allows puromycin to be incorporated in the nascent peptide chain (i.e. 20 μM), and the range of concentrations that completely depress translation in our biological model (i.e. 50 μM, 100 μM and 200 μM, FIG. 10a). We treat MCF7 cells with both 20 and 100 μM puromycin for 2 hours before adding 3PB (100 μM, 10 min) or 3PBis (50 μM, 10 min). Probe-labeled proteins were coupled to a Cy3-azide reporter tag using CuAAC chemistry, separated by SDS-PAGE and detected by in-gel fluorescence scanning. We observed about 50% reduction of the labelling at 65 kDa after puromycin treatment for both probes (FIG. 5c-d). […] To better understand if the labelling is related to the activity of the ribosomal peptidyl transferase centre (PTC), we pre-treated cells with high concentrations of CHX (350 μM) before adding puromycin (100 μM) to fully block the ribosome catalytic activity^8. […]
structure (smiles),measurement,setting,value
"COc1ccc(C[C@H](N)C(=O)N[C@H]2[C@@H](O)[C@H](n3cnc4c(N(C)C)ncnc43)O[C@@H]2CO)cc1 [puromycin, Puromycin]",concentration that allows puromycin to be incorporated in the nascent peptide chain,[1],20 µM
C#CCOc1cc(C2(C(F)(F)F)N=N2)ccc1C(=O)N[C@@H](Cc1ccc(OC)cc1)C(=O)N[C@H]1[C@@H](O)[C@H](n2cnc3c(N(C)C)ncnc32)O[C@@H]1CO [3PN],labelling efficiency after anisomycin and arsenite pre-treatment,"[2]; MCF7, FIG. 8a",strong reduction
C#CCOCCC(=O)NCCOCCOCCNC(=O)N[C@@H](Cc1ccc(OC)cc1)C(=O)N[C@H]1C(OC(=O)OCCC2(C)N=N2)C(n2cnc3c(N(C)C)ncnc32)O[C@@H]1COC(=O)OCCC1(C)N=N1 (some centres unmarked) [3PBis],interaction with 28S rRNA,[3],directly interact with the 28S ribosomal RNA
same,protein labeling signal,"[2]; HEK293 and MCF7, probes added before or after cell lysis, UV 0.75 J/cm2",concentration-dependent increases in protein labeling
same,functional (binding) activity,[2]; depending on position of UV-active diazirine on ribose,possess the functional activity
same,reduction of the polysome/80S ratio,[4],10%
same,reduction of probe labelling by VER-155008,[5],1.2 ×
same,reduction of the labelling at 65 kDa after puromycin treatment,[6],about 50%
